In ChEMBL document CHEMBL2429768, “Eco-friendly synthesis and antimicrobial activities of substituted-5-(1H-indol-3-yl)methylene)-2,2-dimethyl-1,3-dioxane-4,6-dione derivatives” (2013) one finds inhibition zone (IZ) and MIC data, which are given here for one sequence.

Type in all cases: functional
Experiment [1] deals with Aspergillus niger. In words: Antifungal activity against Aspergillus niger at 50 ug/ml after 72 hrs by agar well diffusion method.
The subject of experiment [2] is Fusarium oxysporum. In words: Antifungal activity against Fusarium oxysporum at 500 ug/ml after 72 hrs by agar well diffusion method. For orientation: Agar diffusion results depend on both activity and mobility in agar.
Experiment [3] has as its system Fusarium oxysporum. In words: Antifungal activity against Fusarium oxysporum at 300 ug/ml after 72 hrs by agar well diffusion method.
In experiment [4] the test system is Fusarium oxysporum. In words: Antifungal activity against Fusarium oxysporum at 200 ug/ml after 72 hrs by agar well diffusion method.
Experiment [5] relates to Fusarium oxysporum. Briefly: Antifungal activity against Fusarium oxysporum at 100 ug/ml after 72 hrs by agar well diffusion method.
Experiment [6] concerns Fusarium oxysporum. Briefly: Antifungal activity against Fusarium oxysporum at 50 ug/ml after 72 hrs by agar well diffusion method.
The subject of experiment [7] is Rhizoctonia solani. In words: Antifungal activity against Rhizoctonia solani at 500 ug/ml after 72 hrs by agar well diffusion method.
The subject of experiment [8] is Rhizoctonia solani. Briefly: Antifungal activity against Rhizoctonia solani at 300 ug/ml after 72 hrs by agar well diffusion method.
For experiment [9], the system named is Rhizoctonia solani. Briefly: Antifungal activity against Rhizoctonia solani at 200 ug/ml after 72 hrs by agar well diffusion method.
Experiment [10] relates to Rhizoctonia solani. In words: Antifungal activity against Rhizoctonia solani at 100 ug/ml after 72 hrs by agar well diffusion method.
The subject of experiment [11] is Rhizoctonia solani. Briefly: Antifungal activity against Rhizoctonia solani at 50 ug/ml after 72 hrs by agar well diffusion method.
The test system of experiment [12] is Aspergillus flavus. Briefly: Antifungal activity against Aspergillus flavus at 50 ug/ml after 72 hrs by agar well diffusion method.
The subject of experiment [13] is Aspergillus flavus. In words: Antifungal activity against Aspergillus flavus at 100 ug/ml after 72 hrs by agar well diffusion method.
The test system of experiment [14] is Aspergillus flavus. Briefly: Antifungal activity against Aspergillus flavus after 72 hrs by agar well diffusion method.
Experiment [15] deals with Aspergillus niger. Briefly: Antifungal activity against Aspergillus niger after 72 hrs by agar well diffusion method.
For experiment [16], the system named is Fusarium oxysporum. In words: Antifungal activity against Fusarium oxysporum after 72 hrs by agar well diffusion method.
For experiment [17], the system named is Rhizoctonia solani. In words: Antifungal activity against Rhizoctonia solani after 72 hrs by agar well diffusion method.
For experiment [18], the system named is Aspergillus flavus. Briefly: Antifungal activity against Aspergillus flavus at 500 ug/ml after 72 hrs by agar well diffusion method.
The subject of experiment [19] is Aspergillus flavus. Briefly: Antifungal activity against Aspergillus flavus at 300 ug/ml after 72 hrs by agar well diffusion method.
Experiment [20] relates to Aspergillus flavus. Briefly: Antifungal activity against Aspergillus flavus at 200 ug/ml after 72 hrs by agar well diffusion method.
The test system of experiment [21] is Aspergillus niger. Briefly: Antifungal activity against Aspergillus niger at 500 ug/ml after 72 hrs by agar well diffusion method.
The subject of experiment [22] is Aspergillus niger. In words: Antifungal activity against Aspergillus niger at 300 ug/ml after 72 hrs by agar well diffusion method.
The test system of experiment [23] is Aspergillus niger. In words: Antifungal activity against Aspergillus niger at 200 ug/ml after 72 hrs by agar well diffusion method.
For experiment [24], the system named is Aspergillus niger. Briefly: Antifungal activity against Aspergillus niger at 100 ug/ml after 72 hrs by agar well diffusion method.

Take NYSTATIN: the inhibition zone (IZ) in the experiment on Aspergillus niger [1] came to 11.2 mm; with Fusarium oxysporum [2] it was 37 mm; with Fusarium oxysporum [3], 29 mm; with Fusarium oxysporum [4], 21 mm; in the experiment on Fusarium oxysporum [5], 18 mm; in the experiment on Fusarium oxysporum [6], 15 mm. Besides, the inhibition zone (IZ) with Rhizoctonia solani [7] is 38 mm; with Rhizoctonia solani [8] it was 30 mm; in the experiment on Rhizoctonia solani [9], 22 mm; in the experiment on Rhizoctonia solani [10], 20 mm; with Rhizoctonia solani [11] it was 16 mm; in the experiment on Aspergillus flavus [12] it was 11 mm. In addition, the inhibition zone (IZ) in the experiment with Aspergillus flavus [13] was found to be 13 mm; with Aspergillus flavus [18] it was 32 mm; in the experiment with Aspergillus flavus [19], 22 mm; with Aspergillus flavus [20] it was 16 mm; with Aspergillus niger [21], 34 mm; with Aspergillus niger [22], 23 mm. Further, the results for the inhibition zone (IZ) with Aspergillus niger [23] and in the experiment with Aspergillus niger [24] were 16.6 mm and 14 mm, respectively. Further, the MIC was 20 µg/mL in the experiment on Aspergillus flavus [14], 20 µg/mL with Aspergillus niger [15], 15 µg/mL with Fusarium oxysporum [16] and 15 µg/mL in the experiment on Rhizoctonia solani [17].

Broadly, the MIC is the least concentration at which growth counts as inhibited. Read a low MIC as greater potency.
